Measured values taken from patent publication US20200239530A1, “COMPOUNDS AND METHODS OF MODULATING PROTEIN DEGRADATION” (Vividion Therapeutics, Inc., priority 2017, published 2020).

Experiments:
Test in all cases: Cysteine liganding, probe competition
Type in all cases: binding
[1] = target: T1, FBXO30 F-box only protein 30 (Homo sapiens, UniProt Q8TB52)
T1 construct: Cells were resuspended in cold PBS on ice and sonicated with a probe sonicator to achieve lysis; endogenous in cells
T1 sequence (Q8TB52 1-745): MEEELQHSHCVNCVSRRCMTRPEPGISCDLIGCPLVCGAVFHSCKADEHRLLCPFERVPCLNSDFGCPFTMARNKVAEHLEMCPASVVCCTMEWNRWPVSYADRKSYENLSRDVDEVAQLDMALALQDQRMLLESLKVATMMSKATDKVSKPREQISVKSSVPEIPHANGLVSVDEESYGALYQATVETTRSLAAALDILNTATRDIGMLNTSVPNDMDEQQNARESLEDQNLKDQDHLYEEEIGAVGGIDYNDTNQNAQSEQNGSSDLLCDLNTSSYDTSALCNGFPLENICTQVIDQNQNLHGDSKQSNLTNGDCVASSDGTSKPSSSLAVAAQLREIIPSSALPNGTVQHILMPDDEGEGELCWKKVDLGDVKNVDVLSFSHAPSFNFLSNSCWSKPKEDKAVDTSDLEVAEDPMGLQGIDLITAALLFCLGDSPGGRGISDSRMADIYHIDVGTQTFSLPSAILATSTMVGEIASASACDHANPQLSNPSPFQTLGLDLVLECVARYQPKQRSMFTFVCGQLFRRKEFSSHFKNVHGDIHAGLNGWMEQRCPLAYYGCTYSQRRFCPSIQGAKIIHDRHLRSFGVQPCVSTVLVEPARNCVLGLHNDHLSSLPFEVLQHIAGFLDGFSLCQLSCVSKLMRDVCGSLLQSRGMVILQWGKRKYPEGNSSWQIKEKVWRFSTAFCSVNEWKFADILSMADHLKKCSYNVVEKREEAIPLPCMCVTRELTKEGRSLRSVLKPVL
Procedure, shortened: (§1)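 Steps: sonicate cells in cold PBS; treat 5 mg/ml lysate with compound (25° C, 1 hr); add desthiobiotin iodoacetamide probe from a 10 mM stock (25° C, 1 hr); precipitate, reduce, alkylate, digest with trypsin; capture labelled peptides on streptavidin for analysis.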

[2] = target: T2, HECTD1 E3 ubiquitin-protein ligase HECTD1 (Homo sapiens, UniProt Q9ULT8)
T2 construct: Cells were resuspended in cold PBS on ice and sonicated with a probe sonicator to achieve lysis; endogenous in cells
Procedure, shortened: as §1

[3] = target: T3, HERC1 Probable E3 ubiquitin-protein ligase HERC1 (Homo sapiens, UniProt Q15751)
T3 construct: Cells were resuspended in cold PBS on ice and sonicated with a probe sonicator to achieve lysis; endogenous in cells
T3 sequence (Q15751 whole entry): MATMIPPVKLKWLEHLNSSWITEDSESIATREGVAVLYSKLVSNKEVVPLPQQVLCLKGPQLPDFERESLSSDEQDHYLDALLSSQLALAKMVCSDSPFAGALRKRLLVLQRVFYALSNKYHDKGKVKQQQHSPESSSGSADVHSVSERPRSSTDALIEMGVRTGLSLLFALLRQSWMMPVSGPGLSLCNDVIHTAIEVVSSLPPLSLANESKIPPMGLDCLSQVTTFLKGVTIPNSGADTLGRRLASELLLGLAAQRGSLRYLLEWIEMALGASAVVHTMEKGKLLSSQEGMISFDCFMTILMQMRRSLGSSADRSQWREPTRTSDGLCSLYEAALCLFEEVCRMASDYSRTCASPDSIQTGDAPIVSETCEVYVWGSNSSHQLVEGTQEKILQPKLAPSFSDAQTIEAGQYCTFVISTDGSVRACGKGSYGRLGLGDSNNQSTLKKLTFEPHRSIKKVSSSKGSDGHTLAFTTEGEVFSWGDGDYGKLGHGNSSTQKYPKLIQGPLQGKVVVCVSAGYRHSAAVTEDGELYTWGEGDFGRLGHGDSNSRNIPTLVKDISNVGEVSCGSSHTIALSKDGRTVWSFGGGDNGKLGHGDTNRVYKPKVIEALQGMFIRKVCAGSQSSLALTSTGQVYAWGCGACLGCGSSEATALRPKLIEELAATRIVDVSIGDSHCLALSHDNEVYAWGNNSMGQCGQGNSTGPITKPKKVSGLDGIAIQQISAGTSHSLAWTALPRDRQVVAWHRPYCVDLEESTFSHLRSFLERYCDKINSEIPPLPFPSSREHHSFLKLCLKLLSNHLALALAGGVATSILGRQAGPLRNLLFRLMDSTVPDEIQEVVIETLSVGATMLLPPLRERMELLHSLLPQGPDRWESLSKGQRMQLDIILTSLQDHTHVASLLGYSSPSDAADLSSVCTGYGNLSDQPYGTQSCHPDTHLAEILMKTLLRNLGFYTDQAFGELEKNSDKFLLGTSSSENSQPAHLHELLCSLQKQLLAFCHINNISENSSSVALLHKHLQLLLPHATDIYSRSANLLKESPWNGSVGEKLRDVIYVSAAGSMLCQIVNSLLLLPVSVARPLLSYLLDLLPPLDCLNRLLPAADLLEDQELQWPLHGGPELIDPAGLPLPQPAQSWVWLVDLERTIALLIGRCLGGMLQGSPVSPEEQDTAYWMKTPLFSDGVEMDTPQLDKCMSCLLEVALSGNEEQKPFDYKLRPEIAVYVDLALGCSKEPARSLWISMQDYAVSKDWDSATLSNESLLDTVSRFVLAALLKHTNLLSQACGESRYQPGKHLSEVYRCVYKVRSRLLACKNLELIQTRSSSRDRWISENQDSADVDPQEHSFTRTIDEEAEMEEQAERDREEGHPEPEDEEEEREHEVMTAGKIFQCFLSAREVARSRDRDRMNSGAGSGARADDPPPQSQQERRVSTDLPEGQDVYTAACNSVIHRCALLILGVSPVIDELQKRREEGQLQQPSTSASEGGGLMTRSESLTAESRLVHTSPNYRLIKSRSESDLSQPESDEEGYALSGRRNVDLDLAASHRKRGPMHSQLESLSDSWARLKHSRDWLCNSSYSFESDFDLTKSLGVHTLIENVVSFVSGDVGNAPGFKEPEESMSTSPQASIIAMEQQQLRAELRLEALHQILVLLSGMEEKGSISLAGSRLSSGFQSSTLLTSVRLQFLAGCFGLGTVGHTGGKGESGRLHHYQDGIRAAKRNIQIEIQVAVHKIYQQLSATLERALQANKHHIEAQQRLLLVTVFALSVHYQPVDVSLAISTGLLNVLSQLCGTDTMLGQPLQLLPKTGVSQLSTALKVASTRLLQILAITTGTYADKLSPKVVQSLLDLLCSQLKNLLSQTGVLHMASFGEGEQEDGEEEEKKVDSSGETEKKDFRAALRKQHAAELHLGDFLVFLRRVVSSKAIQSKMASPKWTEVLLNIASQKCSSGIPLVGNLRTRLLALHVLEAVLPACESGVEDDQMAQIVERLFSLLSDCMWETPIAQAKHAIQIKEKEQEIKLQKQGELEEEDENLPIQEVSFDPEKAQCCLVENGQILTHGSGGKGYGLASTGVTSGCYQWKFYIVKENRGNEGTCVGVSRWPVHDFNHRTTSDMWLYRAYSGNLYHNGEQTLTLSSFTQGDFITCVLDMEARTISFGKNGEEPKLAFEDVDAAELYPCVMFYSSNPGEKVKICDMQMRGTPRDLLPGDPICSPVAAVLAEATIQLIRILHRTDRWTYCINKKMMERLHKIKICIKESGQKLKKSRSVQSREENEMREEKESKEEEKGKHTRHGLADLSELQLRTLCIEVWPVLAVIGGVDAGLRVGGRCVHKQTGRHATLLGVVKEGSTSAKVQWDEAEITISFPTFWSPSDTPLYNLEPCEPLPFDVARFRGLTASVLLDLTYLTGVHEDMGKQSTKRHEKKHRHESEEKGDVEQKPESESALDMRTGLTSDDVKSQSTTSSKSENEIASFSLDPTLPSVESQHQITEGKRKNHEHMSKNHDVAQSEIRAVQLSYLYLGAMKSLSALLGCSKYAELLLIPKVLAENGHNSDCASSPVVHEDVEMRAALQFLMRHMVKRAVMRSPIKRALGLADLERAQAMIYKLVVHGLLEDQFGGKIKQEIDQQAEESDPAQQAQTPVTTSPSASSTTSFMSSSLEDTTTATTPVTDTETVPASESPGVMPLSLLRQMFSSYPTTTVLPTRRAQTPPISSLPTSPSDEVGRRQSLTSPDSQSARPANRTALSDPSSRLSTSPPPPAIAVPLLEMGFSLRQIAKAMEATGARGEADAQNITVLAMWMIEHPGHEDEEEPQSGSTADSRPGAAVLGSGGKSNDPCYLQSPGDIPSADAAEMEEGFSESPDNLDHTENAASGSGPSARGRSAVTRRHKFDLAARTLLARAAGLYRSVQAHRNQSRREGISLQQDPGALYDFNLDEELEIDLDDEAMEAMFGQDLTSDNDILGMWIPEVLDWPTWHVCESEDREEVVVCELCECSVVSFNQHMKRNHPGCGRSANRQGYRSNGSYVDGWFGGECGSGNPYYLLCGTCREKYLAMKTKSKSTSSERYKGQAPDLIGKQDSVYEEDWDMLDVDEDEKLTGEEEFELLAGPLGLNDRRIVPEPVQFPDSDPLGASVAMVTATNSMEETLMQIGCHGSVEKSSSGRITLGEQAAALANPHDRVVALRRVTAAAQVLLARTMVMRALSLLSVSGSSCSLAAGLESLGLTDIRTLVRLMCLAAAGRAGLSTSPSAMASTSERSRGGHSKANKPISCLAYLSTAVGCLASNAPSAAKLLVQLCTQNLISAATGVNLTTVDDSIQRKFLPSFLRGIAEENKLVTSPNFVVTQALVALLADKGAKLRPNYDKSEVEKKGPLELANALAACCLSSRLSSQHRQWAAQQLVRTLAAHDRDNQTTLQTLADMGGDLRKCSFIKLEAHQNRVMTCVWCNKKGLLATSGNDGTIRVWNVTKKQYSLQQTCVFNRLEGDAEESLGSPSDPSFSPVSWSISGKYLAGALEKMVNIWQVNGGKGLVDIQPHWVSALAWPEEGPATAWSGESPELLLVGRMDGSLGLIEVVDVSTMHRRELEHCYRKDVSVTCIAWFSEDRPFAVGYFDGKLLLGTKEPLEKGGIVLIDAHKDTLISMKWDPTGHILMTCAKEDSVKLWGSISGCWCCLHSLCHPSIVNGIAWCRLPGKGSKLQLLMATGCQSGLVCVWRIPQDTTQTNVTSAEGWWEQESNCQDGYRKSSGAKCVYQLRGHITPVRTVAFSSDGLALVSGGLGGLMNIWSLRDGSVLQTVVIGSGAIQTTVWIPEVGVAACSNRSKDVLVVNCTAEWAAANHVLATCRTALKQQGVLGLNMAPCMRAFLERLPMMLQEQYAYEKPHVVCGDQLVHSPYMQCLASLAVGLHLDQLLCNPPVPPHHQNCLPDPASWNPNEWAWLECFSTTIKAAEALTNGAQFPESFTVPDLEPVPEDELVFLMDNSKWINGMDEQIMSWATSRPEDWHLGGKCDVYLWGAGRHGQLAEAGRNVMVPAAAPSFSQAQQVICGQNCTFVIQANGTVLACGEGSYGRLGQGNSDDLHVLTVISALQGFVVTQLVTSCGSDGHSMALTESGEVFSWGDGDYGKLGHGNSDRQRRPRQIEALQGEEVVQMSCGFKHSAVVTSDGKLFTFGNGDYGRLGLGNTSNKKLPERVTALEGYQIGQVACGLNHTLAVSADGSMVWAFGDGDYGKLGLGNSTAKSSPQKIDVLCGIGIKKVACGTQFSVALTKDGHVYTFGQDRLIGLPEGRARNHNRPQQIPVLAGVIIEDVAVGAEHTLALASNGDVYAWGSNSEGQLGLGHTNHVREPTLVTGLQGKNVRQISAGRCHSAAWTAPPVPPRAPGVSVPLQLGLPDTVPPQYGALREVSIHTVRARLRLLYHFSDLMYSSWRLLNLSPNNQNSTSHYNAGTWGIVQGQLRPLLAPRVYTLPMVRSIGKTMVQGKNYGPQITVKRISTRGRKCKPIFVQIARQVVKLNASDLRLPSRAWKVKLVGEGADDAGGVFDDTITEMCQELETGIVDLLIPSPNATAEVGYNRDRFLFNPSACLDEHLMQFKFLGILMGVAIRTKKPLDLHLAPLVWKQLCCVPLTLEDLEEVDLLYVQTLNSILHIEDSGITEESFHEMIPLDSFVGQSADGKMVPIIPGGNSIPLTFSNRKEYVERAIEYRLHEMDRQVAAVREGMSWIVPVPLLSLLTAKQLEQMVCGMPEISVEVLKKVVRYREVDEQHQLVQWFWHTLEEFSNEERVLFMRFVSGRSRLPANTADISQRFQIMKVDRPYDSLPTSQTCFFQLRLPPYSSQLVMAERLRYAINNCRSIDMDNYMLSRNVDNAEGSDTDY
Procedure, shortened: as §1

In the case of `COc1ccc2c(c1)CCCN2C(=O)CCl` [KB02], the Liganded ([1]; FBXO30 Res# 725, uniprot Q8TB52) is reported as “YES”, the Liganded ([2]; HECTD1 Res# 1855, uniprot Q9ULT8) is reported as “YES” and the Liganded ([3]; HERC1 Res# 56, uniprot Q15751) is reported as “YES”. For the same compound, the Liganded ([3]; HERC1 Res# 1941, uniprot Q15751) was “YES”.
With `O=C(CCl)Nc1cc(C(F)(F)F)cc(C(F)(F)F)c1` [KBO3] the “100 Max” value ([1]; uniprot Q8TB52) was 10.4, the 100 ave ([1]; uniprot Q8TB52) was 4.3 and the 500 ave ([1]; uniprot Q8TB52) was 25.0. The 500 Max ([1]; uniprot Q8TB52, unit assumed) was 39.5%, the 100 ave ([2]; uniprot Q9ULT8) was 0.1 and the 500 ave ([2]; uniprot Q9ULT8) was 72.6. The 100 Max ([2]; uniprot Q9ULT8, unit assumed) was 1.2%, the 500 Max ([2]; uniprot Q9ULT8, unit assumed) was 72.6% and the “500 Max” value ([3]; uniprot Q15751) was 68.4. The 500 ave ([3]; uniprot Q15751) was 58.0.
